# In PMC9271885 (eBioMedicine, 2022):
# Several values for one entry are separate records, joined by “and”; a condition that tells them apart may be missing. Equal entries are not always repeated. Where two headings read alike, the source gives them in different places.
# Key:
# SARS-CoV-2 [1] = assay: microbe, parasite or virus in culture; assay type: cell-based
# in vitro = assay: in vitro
# Procedure: One day prior to infection, 96-well culture plates were seeded with 5×10^4 Vero E6 or Caco-2 cells in 100µL assay medium per well (containing 2.5% FCS). […] After 15min, a preset amount of virus diluted in 25µL of assay medium was added to the wells. This quantity of virus was calibrated so that the viral replication was still in the exponential growth phase for the readout, as previously described, [28], [29] which correspond here to 150 TCID50 per well. Four “cell control” wells were supplemented with 50µL of assay medium without any compounds or virus. On each culture plate, a positive control compound (Remdesivir, BLDpharm) was added in duplicate with eight 2-fold serial dilutions (0.16µM to 20µM). Plates were incubated for 2 days at 37°C prior to quantification of the viral genome by real-time RT-PCR as described below. For the determination of the 50% cytotoxic concentrations (CC50; compound concentration required to reduce by 50% cell viability), the same culture conditions were used, without addition of the virus, and cell viability was measured using CellTiter Blue® (Promega) following manufacturer's instructions. EC50, EC90 and CC50 were determined using logarithmic interpolation as previously described.[28] The selectivity index of the compounds was calculated as the ratio of the CC50 over the EC50.
# [2] = cited from earlier work
# [3] = Population pharmacokinetic modelling and simulation of TIZ in hamster (LC-MS/MS, NONMEM); settings: in vivo
# Procedure: At each time point, approximate 80µl of blood were collected from the submandibular vein or the saphenous vein of hamsters. All samples were transferred into commercial K2-EDTA tubes, placed on ice until processed for plasma extraction by centrifugation and stored at −70°C before analysis. A LC-MS/MS-AI Triple Quad 5500 was used to determine TIZ concentrations. The mobile phase was a gradient of 0.1% formic acid (FA) in water and 0.1% of FA in acetonitrile (ACN), the column was an ACQUITY UPLC HSS T3 1.8 μm 2.1 × 50mm. For mass spectrometry a positive electrospray ionization was used, and a selected reaction monitoring was set to select TIZ: [M+H]+m/z: 266.0 / 121.2 and dexamethasone: [M+H]+m/z: 393.0 / 373.1 as internal standard.
# Pharmacokinetic profiles of TIZ in hamster were analyzed using a nonlinear mixed-effects modelling approach. The population pharmacokinetics analysis was performed using NONMEM® version 7.4. The final pharmacokinetic model was established by evaluating one-, two-, and three-compartment disposition models, as well as several different absorption models (i.e. first-order absorption, first-order absorption with lag time, and transit absorption models). The inter-individual variabilities of pharmacokinetic parameters were implemented as a log-normal distribution and the residual unexplained variability was modelled as an exponential error.
# SARS-CoV-2 [4] = assay type: cell-based; settings: bronchial human airway epithelium
# [5] = Clinical course of the disease in infected hamsters (normalized weight, clinical signs); assay type: in vivo, Syrian hamsters
# Procedure: Three-week-old female Syrian hamsters were provided by Janvier Labs (SPF status). Animals were maintained in ISOcage P - Bioexclusion System (Techniplast) with unlimited access to water/food and 14h/10h light/dark cycle. A wooden gnawing block and extra bedding material was provided as cage enrichment. Animals were weighed and monitored daily for the duration of the study to detect the appearance of any clinical signs of illness/suffering. General anesthesia was obtained with isoflurane (Isoflurin®, Axience). Euthanasia, which was also realized under general anesthesia, was performed by cervical dislocation.
# Groups of 6 hamsters were intranasally infected with 10^4 TCID50 of virus. a Experimental timeline. b, f, j Viral replication in lung based on infectious titers (measured using a TCID50 assay) expressed in TCID50/g of lung (n=6 animals/group). c, g, k Viral replication in lung based on viral RNA yields (measured using an RT-qPCR assay) expressed in viral genome copies/g of lung (n=6 animals/group). d, h, l Plasma viral loads (measured using an RT-qPCR assay) are expressed in viral genome copies/mL of plasma (the dotted line indicates the detection threshold of the assay) (n=6 animals/group). e, i, m Clinical course of the disease (n=6 animals/group). Normalized weight at day n was calculated as follows: % of initial weight of the animal at day n. Data represent mean ± SD (Details in Supplementary Data 2).
# SARS-CoV-2 [6] = assay: Hamster model of SARS-CoV-2 infection, oral NTZ treatment (lung infectious titers, lung viral RNA yields, plasma viral loads); assay type: in vivo, Syrian hamsters; set-up: Lung Infectious titers / Plasmatic viral RNA yields / Lung Viral RNA yields: unit not given here; settings: for Lung Infectious titers / Lung Viral RNA yields / Plasmatic viral RNA yields: inoculum 104 TCID50, Figure 3, individual animals
# [7] = Severe acute respiratory syndrome coronavirus 2, Vero C1008, 48 h, Vero E6 cells, viral RNA, 2 days incubation
# [8] = Severe acute respiratory syndrome coronavirus 2, Vero C1008, 48 h, Vero E6 cells, viral RNA, 2 days incubation, read-out: EC50
# [9] = Nitazoxanide IN 2.8mg/kg/day TID, inoculum 104 TCID50, sacrifice day 3, Figure 5, individual animals
# [10] = Nitazoxanide IN 2.8mg/kg/day TID, inoculum 104 TCID50, sacrifice day 3, Figure SF 2, individual animals
# [11] = Nitazoxanide per os 500mg/kg/day BID, inoculum 104 TCID50, sacrifice day 3, Figure 3, individual animals
# [12] = Nitazoxanide per os 500mg/kg/day BID, inoculum 104 TCID50, sacrifice day 5, Figure 3, individual animals
# [13] = Nitazoxanide per os 750mg/kg/day BID, inoculum 104 TCID50, sacrifice day 3, Figure 3, individual animals
# [14] = NTZ 500mg/kg/day BID oral for 3 days, 3 dpi
# [15] = NTZ 500mg/kg/day BID oral for 4 days, 5 dpi
# [16] = NTZ 750mg/kg/day TID oral for 3 days, 3 dpi
# [17] = Nitazoxanide per os 500mg/kg/day BID, sacrifice day 3
# [18] = Nitazoxanide per os 500mg/kg/day BID, sacrifice day 5
# [19] = Nitazoxanide per os 750mg/kg/day BID, sacrifice day 3
structure (smiles),measurement,setting,value
"O=C(Nc1ncc([N+](=O)[O-])s1)c1ccccc1O [TIZ, tizoxanide]",EC90,SARS-CoV-2 [1]; [7],9.27 µM
same,EC50,SARS-CoV-2 [1]; [8],7.48 µM
same,EC50,"SARS-CoV-2 [1]; Severe acute respiratory syndrome coronavirus 2, Vero C1008, read-out: EC50 expressed in µg/mL",1.98 µg/mL
same,Selectivity Index (SI=CC50/EC50),SARS-CoV-2 [1]; Vero E6 cells,higher than 13.3
same,CC50 at 2 days,"in vitro; African green monkey, CC50",> 60 µM
same,bound to plasma proteins,[2],99%
same,Tmax,"[3]; Syrian, po",16.6 min
same,half-life,"[3]; Syrian, po",48 min
"CC(=O)Oc1ccccc1C(=O)Nc1ncc([N+](=O)[O-])s1 [NTZ, Nitazoxanide]",effective NTZ concentrations ex vivo,SARS-CoV-2 [4],5 µM
same,effective NTZ concentrations ex vivo,SARS-CoV-2 [4]; conversion of 5µM,1.54 µg/mL
same,EC90,SARS-CoV-2 [1]; [7],10.3 µM
same,EC50,SARS-CoV-2 [1]; [8],3.19 µM
same,EC50,"SARS-CoV-2 [1]; Vero E6 cells, viral RNA, 2 days incubation, read-out: EC50",< 5 µM
same,CC50 at 2 days,"in vitro; African green monkey, CC50, Vero E6 cells, no virus",> 60 µM
same,CC50 at 2 days,in vitro; human,9.15 µM
same,mean normalized weight vs untreated animals,"[5]; NTZ 2.8mg/kg/day TID intranasal, 1 to 3 dpi, first experiment",significantly lower than that of untreated animals
same,mean normalized weight vs untreated animals,"[5]; NTZ 2.8mg/kg/day TID intranasal, 1 to 3 dpi, repeated experiment",significantly lower than that of untreated animals
same,mean normalized weight vs untreated animals,"[5]; NTZ 500mg/kg/day BID oral for 3 days, at 3 dpi",significantly lower than that of untreated animals
same,clinical signs of illness/suffering compared to untreated animals,"[5]; NTZ 500mg/kg/day BID oral for 4 days, followed to 5 dpi",did not show any clinical signs of illness/suffering
same,mean normalized weight vs untreated animals,"[5]; NTZ 750mg/kg/day TID oral for 3 days, at 2 dpi",significantly lower than that of untreated animals
same,Normalized weights Day 0,[5]; [9],100
same,Normalized weights Day 1,[5]; [9],90.2 and 91.4 and 94.7 and 92.3 and 86.3 and 91.5
same,Normalized weights Day 2,[5]; [9],81.4 and 83.1 and 86.9 and 88.1 and 80.0 and 82.4
same,Normalized weights Day 3,[5]; [9],70.4
same,Normalized weights Day 0,[5]; [10],100
same,Normalized weights Day 1,[5]; [10],92.6 and 97.1 and 95.9 and 101.1 and 97.4 and 94.0
same,Normalized weights Day 2,[5]; [10],84.7 and 91.2 and 89.0 and 92.2 and 87.0 and 85.8
same,Normalized weights Day 0,[5]; [11],100
same,Normalized weights Day 1,[5]; [11],103.3 and 103.7 and 101.9 and 97.1 and 103.5 and 104.5
same,Normalized weights Day 2,[5]; [11],100.2 and 95.2 and 98.6 and 92.0 and 97.9 and 99.6
same,Normalized weights Day 3,[5]; [11],97.9 and 94.1 and 93.4 and 93.2
same,Normalized weights Day 0,[5]; [12],100
same,Normalized weights Day 1,[5]; [12],103.8 and 103.9 and 104.9 and 104.4 and 104.6 and 102.8
same,Normalized weights Day 2,[5]; [12],96.9 and 95.0 and 102.9 and 95.3 and 100.2
same,Normalized weights Day 3,[5]; [12],96.2 and 96.1
same,Normalized weights Day 4,[5]; [12],83.8
same,Normalized weights Day 5,[5]; [12],98.6 and 90.9 and 91.2 and 79.5 and 92.9
same,Normalized weights Day 0,[5]; [13],100
same,Normalized weights Day 1,[5]; [13],102.2 and 103.1 and 105.8 and 99.4 and 106.0 and 101.2
same,Normalized weights Day 2,[5]; [13],95.2 and 96.5 and 95.6 and 90.1 and 90.2
same,Normalized weights Day 3,[5]; [13],92.7
same,mean normalized weight vs untreated animals,"[5]; histopathology experiment, NTZ 500mg/kg/day BID oral, at 3 dpi",significantly lower than that of untreated animals
same,Normalized weights Day 0,"[5]; infected hamsters, nitazoxanide 500mg/kg/day per os BID, Day 0, individual animals",100
same,Normalized weights Day 1,"[5]; infected hamsters, nitazoxanide 500mg/kg/day per os BID, Day 1, individual animals",100.5 and 102.7 and 103.7 and 103.5
same,Normalized weights Day 2,"[5]; infected hamsters, nitazoxanide 500mg/kg/day per os BID, Day 2, individual animals",94.1 and 99.3 and 98.2
same,Normalized weights Day 3,"[5]; infected hamsters, nitazoxanide 500mg/kg/day per os BID, Day 3, individual animals",92.9 and 96.2
same,Normalized weights Day 4,"[5]; infected hamsters, nitazoxanide 500mg/kg/day per os BID, Day 4, individual animals",86.9
same,Normalized weights Day 5,"[5]; infected hamsters, nitazoxanide 500mg/kg/day per os BID, Day 5, individual animals",90.1 and 88.3 and 85.4 and 93.9
same,infectious titers in clarified lung homogenates vs untreated animals,SARS-CoV-2 [6]; [14],no significant differences
same,viral RNA yields in clarified lung homogenates vs untreated animals,SARS-CoV-2 [6]; [14],no significant differences
same,viral RNA yields in plasma vs untreated animals,SARS-CoV-2 [6]; [14],No significant difference
same,infectious titers in clarified lung homogenates vs untreated animals,SARS-CoV-2 [6]; [15],no significant reduction
same,viral RNA yields in clarified lung homogenates vs untreated animals,SARS-CoV-2 [6]; [15],no significant reduction
same,viral RNA yields in plasma vs untreated animals,SARS-CoV-2 [6]; [15],no significant reduction
same,infectious titers in clarified lung homogenates vs untreated animals,SARS-CoV-2 [6]; [16],no significant differences
same,viral RNA yields in clarified lung homogenates vs untreated animals,SARS-CoV-2 [6]; [16],no significant differences
same,viral RNA yields in plasma vs untreated animals,SARS-CoV-2 [6]; [16],No significant difference
same,Lung Infectious titers,SARS-CoV-2 [6]; [17],8.038 and 8.250 and 7.442 and 7.772 and 7.773 and 7.077
same,Lung Viral RNA yields,SARS-CoV-2 [6]; [17],8.641
same,Plasmatic viral RNA yields,SARS-CoV-2 [6]; [17],5.553 and 4.360 and 4.045 and 4.724 and 5.043 and 5.205
same,Lung Viral RNA yields,SARS-CoV-2 [6]; [18],7.115 and 6.597 and 6.910
same,Plasmatic viral RNA yields,SARS-CoV-2 [6]; [18],3.987 and 3.600 and 3.442 and 4.487 and 3.519
same,Lung Infectious titers,"SARS-CoV-2 [6]; Nitazoxanide per os 500mg/kg/day BID, sacrifice day 5, § : considered at 60 TCID50/mL (detection threshold)",≤ 2.486 § and 4.354 and 4.491 and 5.007 and 3.086
same,Lung Infectious titers,SARS-CoV-2 [6]; [19],7.345 and 6.869 and 7.090 and 6.311 and 7.103 and 7.069
same,Lung Viral RNA yields,SARS-CoV-2 [6]; [19],8.692
same,Plasmatic viral RNA yields,SARS-CoV-2 [6]; [19],3.193 and 2.818 and 5.191 and 4.129 and 4.008 and 4.113
same,"V/F volume of distribution of the central compartment, population estimate (%RSE)",[3],0.128 (48.3) L
same,"CL/F oral clearance, population estimate (%RSE)",[3]; po,0.651 (11.9) L/h
